Experimental data reported in PubChem BioAssay AID504570 (Southern Research Specialized Biocontainment Screening …, 2011).

test system: MAGI-CCR5 HeLa cells, HIV-1 IIIB, beta-gal luminescence, 48 h; experiment: anti-HIV-1 IIIB activity in MAGI-CCR5 reporter cells – cell-based, MAGI-CCR5 HeLa, beta-gal luminescence, 2% serum, set 2, dose response (AID 504570)

Structure (SMILES) | IC50 [µM]
Cc1c2c(=O)n(-c3nc4ccccc4s3)nc-2cc(O)n1Cc1ccncc1 | 14.7
COc1ccccc1Cn1c(O)cc2nn(-c3nc4ccccc4s3)c(=O)c-2c1C | 26.5
COc1ccc(Cn2c(O)cc3nn(-c4nc5ccccc5s4)c(=O)c-3c2C)cc1 | 33.6
Cc1c2c(=O)n(-c3nc4ccccc4s3)nc-2cc(O)n1Cc1cccs1 | 11.9
Cc1c2c(=O)n(-c3nc4ccccc4s3)nc-2cc(O)n1Cc1ccccc1Cl | 3.07
Cc1c2c(=O)n(-c3nc4ccccc4s3)nc-2cc(O)n1C1CC1 | 7.53
Cc1c2c(=O)n(-c3nc4ccccc4s3)nc-2cc(O)n1CCc1ccc(O)cc1 | 25.6
Cc1c2c(=O)n(-c3nc4ccccc4s3)nc-2cc(O)n1Cc1ccccc1 | 14.5

Results, then the compound that gave them:

IC50 [µM] | Structure (SMILES)
3.75 | Cc1c2c(=O)n(-c3nc4ccccc4s3)nc-2cc(O)n1Cc1ccc(F)cc1
7.09 | Cc1c2c(=O)n(-c3nc4ccccc4s3)nc-2cc(O)n1Cc1cccnc1
5.34 | Cc1c2c(=O)n(-c3nc4ccccc4s3)nc-2cc(O)n1CCC(C)C
11.8 | COc1ccc(CCn2c(O)cc3nn(-c4nc5ccccc5s4)c(=O)c-3c2C)cc1
26 | Cc1c2c(=O)n(-c3nc4ccccc4s3)nc-2cc(O)n1CCc1cccs1
